Laboratory results from US20080269142A1, “ENDOGENOUS THIADIAZABICYCLO GLUTATHIONE-ADDUCT” (priority 2006, published 2008).

Tested on: EA.hy 926 endothelial cells
Assay: Apoptosis (morphological changes) in treated EA.hy 926 endothelial cells
Format: cell-based
Experimental: EA.hy 926 endothelial cells were incubated in DMEM (10 mL) containing 10% FBS, 100 unit/mL of penicillin, and 100 μg/mL of streptomycin at 37° C. in an atmosphere of 5% CO2. After the cells reached 70-80% confluence (approximately 2×10^6 cells), the complete DMEM was removed and replaced with FBS-free DMEM for treatment with dimethyl-TOG.
As the result, there was little accumulation of TOG in the cells. […] Therefore, high doses of dimethyl-TOG (100 μM and 200 μM) were chosen to detect an apoptosis-inducing effect. When the cells were treated with dimethyl-TOG, typical morphological changes of apoptosis, such as detachment from the substrate, shrinkage, and membrane blebbing were observed as early as 1 h after treatment.
GGT mediates the first step of hydrolysis of extracellular GSH. The hydrolyzed amino acids will be transported back to the cells for GSH biosynthesis (4). Without GGT activity, there would be accumulation of GSH in the extracellular medium and depletion of intracellular GSH.

Q: Which results are given for `CCCCCC(=O)/C=C/C=O` [ONE, 4-oxo-2(E)-nonenal]?
A: apoptosis after 8 h of incubation (10 μM ONE, 8 h): most of the cells treated with 10 μM ONE went to complete apoptosis; apoptosis-inducing effect (ONE 1 μM alone): no apoptosis-inducing effect
